# Measured values published in patent US20260262643A1, “HERBICIDAL BENZOXAZINES” (FMC CORPORATION, priority 2022, published 2026).
# Legend:
# [1] = tested on: goosegrass; experiment: Test A preemergence; type: in vivo, Eleusine indica; settings: 1000 g ai/ha, 0 to 100 scale (0 no effect, 100 complete control), 10 days; for pest or weed control at 1000 g/ha: Eleusine indica, pre-emergence, 240 h, read-out: Plant response rating, Goosegrass
# Source text: (§1) Seeds of plant species selected from barnyardgrass (Echinochloa crusgalli), blackgrass (Alopecurus myosuroides), corn (Zea mays), foxtail, giant (giant foxtail, Setaria faberi), goosegrass (Eleusine indica), kochia (Bassia scoparia), oat, wild (wild oat, Avena fatua), pigweed, palmer (palmer amaranth, palmer pigweed, Amaranthus palmeri), Pigweed, Redroot (redroot pigweed, Amaranthus retroflexus), ragweed (common ragweed, Ambrosia artemisiifolia), ryegrass, Italian (italian ryegrass, Lolium multiflorum), soybean (Glycine max), and wheat (Triticum aestivum) were planted into a blend of loam soil and sand and treated preemergence with a directed soil spray using test chemicals formulated in a non-phytotoxic solvent mixture which included a surfactant. At the same time, plants selected from these crops and weed species and also galium (catchweed bedstraw, Galium aparine) and horseweed (Erigeron canadensis) were planted in pots containing the same blend of loam soil and sand and treated with postemergence applications of test chemicals formulated in the same manner. Plants ranged in height from 2 to 10 cm and were in the one- to two-leaf stage for the postemergence treatment. Treated plants and untreated controls were maintained in a greenhouse for 10 days, after which time all treated plants were compared to untreated controls and visually evaluated for injury. Plant response ratings, summarized in Table A, are based on a 0 to 100 scale where 0 is no effect and 100 is complete control. A dash (-) response means no test result.
# [2] = tested on: blackgrass; experiment: Test A preemergence; type: in vivo, Alopecurus myosuroides; settings: 1000 g ai/ha, 0 to 100 scale (0 no effect, 100 complete control), 10 days; for pest or weed control at 1000 g/ha: Alopecurus myosuroides, pre-emergence, 240 h, read-out: Plant response rating, Blackgrass
# Source text: as §1
# [3] = tested on: kochia; experiment: Test A postemergence; type: in vivo, Bassia scoparia; settings: 1000 g ai/ha, Postemergence, 0 to 100 scale; for pest or weed control at 1000 g/ha: Bassia scoparia, post-emergence, 240 h, read-out: Plant response rating, Kochia
# Source text: as §1
# [4] = tested on: rice; experiment: Test B flooded paddy test; type: in vivo, Oryza sativa; settings: 250 g ai/ha, Flood, 13 days, 0 to 100 scale (0 no effect, 100 complete control); for plant injury at 250 g/ha: Oryza sativa, 312 h, read-out: Plant response rating, Rice
# Method: (§2) Plant species in the flooded paddy test selected from barnyardgrass (Echinochloa crus-galli), ducksalad (Heteranthera limosa), rice (Oryza sativa), and sedge, umbrella (small-flower umbrella sedge, Cyperus difformis) were grown to the 2-leaf stage for testing. At time of treatment, test pots were flooded to 3 cm above the soil surface, treated by application of test compounds directly to the paddy water, and then maintained at that water depth for the duration of the test. Treated plants and controls were maintained in a greenhouse for 13 days, after which time all species were compared to controls and visually evaluated. Plant response ratings, summarized in Table B, are based on a scale of 0 to 100 where 0 is no effect and 100 is complete control. A dash (-) response means no test result.
# [5] = tested on: barnyardgrass; experiment: Test B flooded paddy test; type: in vivo, Echinochloa crus-galli; settings: 250 g ai/ha, Flood, 13 days, 0 to 100 scale (0 no effect, 100 complete control); for pest or weed control at 250 g/ha: Echinochloa crus-galli, 312 h, read-out: Plant response rating, Barnyardgrass
# Method: as §2
# [6] = tested on: goosegrass; experiment: Test A postemergence; type: in vivo, Eleusine indica; settings: 1000 g ai/ha, Postemergence, 0 to 100 scale; for pest or weed control at 1000 g/ha: Eleusine indica, post-emergence, 240 h, read-out: Plant response rating, Goosegrass
# Source text: as §1
# [7] = tested on: ragweed; experiment: Test A postemergence; type: in vivo, Ambrosia artemisiifolia; settings: 1000 g ai/ha, Postemergence, 0 to 100 scale; for pest or weed control at 1000 g/ha: Ambrosia artemisiifolia, post-emergence, 240 h, read-out: Plant response rating, Ragweed
# Source text: as §1
# [8] = tested on: sedge, umbrella; experiment: Test B flooded paddy test; type: in vivo, Cyperus difformis; settings: 250 g ai/ha, Flood, 13 days, 0 to 100 scale (0 no effect, 100 complete control); for pest or weed control at 250 g/ha: Cyperus difformis, 312 h, read-out: Plant response rating, Sedge, Umbrella
# Method: as §2
# [9] = tested on: galium; experiment: Test A postemergence; type: in vivo, Galium aparine; settings: 1000 g ai/ha, Postemergence, 0 to 100 scale; for pest or weed control at 1000 g/ha: Galium, post-emergence, 240 h, read-out: Plant response rating, Galium
# Source text: as §1
# [10] = tested on: kochia; experiment: Test A preemergence; type: in vivo, Bassia scoparia; settings: 1000 g ai/ha, 0 to 100 scale (0 no effect, 100 complete control), 10 days; for pest or weed control at 1000 g/ha: Bassia scoparia, pre-emergence, 240 h, read-out: Plant response rating, Kochia
# Source text: as §1
# [11] = tested on: pigweed, palmer; experiment: Test A postemergence; type: in vivo, Amaranthus palmeri; settings: 1000 g ai/ha, Postemergence, 0 to 100 scale; for pest or weed control at 1000 g/ha: Amaranthus palmeri, post-emergence, 240 h, read-out: Plant response rating, Pigweed, Palmer
# Source text: as §1
# [12] = tested on: ducksalad; experiment: Test B flooded paddy test; type: in vivo, Heteranthera limosa; settings: 250 g ai/ha, Flood, 13 days, 0 to 100 scale (0 no effect, 100 complete control); for pest or weed control at 250 g/ha: Heteranthera limosa, 312 h, read-out: Plant response rating, Ducksalad
# Method: as §2
# [13] = tested on: blackgrass; experiment: Test A postemergence; type: in vivo, Alopecurus myosuroides; settings: 1000 g ai/ha, Postemergence, 0 to 100 scale; for pest or weed control at 1000 g/ha: Alopecurus myosuroides, post-emergence, 240 h, read-out: Plant response rating, Blackgrass
# Source text: as §1
# [14] = tested on: horseweed; experiment: Test A postemergence; type: in vivo, Erigeron canadensis; settings: 1000 g ai/ha, Postemergence, 0 to 100 scale; for pest or weed control at 1000 g/ha: Erigeron canadensis, post-emergence, 240 h, read-out: Plant response rating, Horseweed
# Source text: as §1
# [15] = tested on: foxtail, giant; experiment: Test A postemergence; type: in vivo, Setaria faberi; settings: 1000 g ai/ha, Postemergence, 0 to 100 scale; for pest or weed control at 1000 g/ha: Setaria faberi, post-emergence, 240 h, read-out: Plant response rating, Foxtail, Giant
# Source text: as §1
# [16] = tested on: ragweed; experiment: Test A preemergence; type: in vivo, Ambrosia artemisiifolia; settings: 1000 g ai/ha, 0 to 100 scale (0 no effect, 100 complete control), 10 days; for pest or weed control at 1000 g/ha: Ambrosia artemisiifolia, pre-emergence, 240 h, read-out: Plant response rating, Ragweed
# Source text: as §1
# [17] = tested on: pigweed, palmer; experiment: Test A preemergence; type: in vivo, Amaranthus palmeri; settings: 1000 g ai/ha, 0 to 100 scale (0 no effect, 100 complete control), 10 days; for pest or weed control at 1000 g/ha: Amaranthus palmeri, pre-emergence, 240 h, read-out: Plant response rating, Pigweed, Palmer
# Source text: as §1
# [18] = tested on: foxtail, giant; experiment: Test A preemergence; type: in vivo, Setaria faberi; settings: 1000 g ai/ha, 0 to 100 scale (0 no effect, 100 complete control), 10 days; for pest or weed control at 1000 g/ha: Setaria faberi, pre-emergence, 240 h, read-out: Plant response rating, Foxtail, Giant
# Source text: as §1
# [19] = tested on: ryegrass, Italian; experiment: Test A postemergence; type: in vivo, Lolium multiflorum; settings: 1000 g ai/ha, Postemergence, 0 to 100 scale; for pest or weed control at 1000 g/ha: Lolium multiflorum, post-emergence, 240 h, read-out: Plant response rating, Ryegrass, Italian
# Source text: as §1
# [20] = tested on: ryegrass, Italian; experiment: Test A preemergence; type: in vivo, Lolium multiflorum; settings: 1000 g ai/ha, 0 to 100 scale (0 no effect, 100 complete control), 10 days; for pest or weed control at 1000 g/ha: Lolium multiflorum, pre-emergence, 240 h, read-out: Plant response rating, Ryegrass, Italian
# Source text: as §1
Structure (SMILES),pest or weed control at 1000 g/ha [1] [%],pest or weed control at 1000 g/ha [2] [%],pest or weed control at 1000 g/ha [3] [%],plant injury at 250 g/ha [4] [%],pest or weed control at 250 g/ha [5] [%],pest or weed control at 1000 g/ha [6] [%],pest or weed control at 1000 g/ha [7] [%],pest or weed control at 250 g/ha [8] [%],pest or weed control at 1000 g/ha [9] [%],pest or weed control at 1000 g/ha [10] [%],pest or weed control at 1000 g/ha [11] [%],pest or weed control at 250 g/ha [12] [%],pest or weed control at 1000 g/ha [13] [%],pest or weed control at 1000 g/ha [14] [%],pest or weed control at 1000 g/ha [15] [%],pest or weed control at 1000 g/ha [16] [%],pest or weed control at 1000 g/ha [17] [%],pest or weed control at 1000 g/ha [18] [%],pest or weed control at 1000 g/ha [19] [%],pest or weed control at 1000 g/ha [20] [%],other results
"C[C@H]1CN(C(=O)c2cccc(-c3cnn(C)c3)c2)c2cccc(Cl)c2O1 [Compound 119, [(2S)-8-Chloro-2,3-dihydro-2-methyl-4H-1,4-benzoxazin-4-yl][3-(1-methyl-1H-pyrazol-4-yl)phenyl]methanone]",90,70,90,0,0,70,70,0,90,10,80,0,70,0,90,90,90,100,20,50,–
"COCC1CN(C(=O)c2ccnc(-n3cncn3)c2)c2cccc(Cl)c2O1 (stereo not shown) [Compound 35, [8-Chloro-2,3-dihydro-2-(methoxymethyl)-4H-1,4-benzoxazin-4-yl][2-(1H-1,2,4-triazol-1-yl)-4-pyridinyl]methanone]",90,70,50,0,0,50,50,40,80,50,50,30,60,20,90,20,90,100,80,90,–
O=C(c1ccnc(-n2cncn2)c1)N1CC(C(F)(F)F)Oc2c(Cl)cccc21 (stereo not shown) [Compound 34],–,–,–,–,–,–,–,–,–,–,–,–,–,–,–,–,–,–,–,–,"Plant response rating, Goosegrass [1]: 100; Plant response rating, Blackgrass [2]: 80; Plant response rating, Kochia [3]: 100; Plant response rating, Rice [4]: 0; Plant response rating, Barnyardgrass [5]: 0; Plant response rating, Goosegrass [6]: 50; Plant response rating, Ragweed [7]: 50; Plant response rating, Sedge, Umbrella [8]: 0; Plant response rating, Galium [9]: 100; Plant response rating, Kochia [10]: 90; Plant response rating, Pigweed, Palmer [11]: 80; Plant response rating, Ducksalad [12]: 0; Plant response rating, Blackgrass [13]: 70; Plant response rating, Horseweed [14]: 0; Plant response rating, Foxtail, Giant [15]: 100; Plant response rating, Ragweed [16]: 20; Plant response rating, Pigweed, Palmer [17]: 100; Plant response rating, Foxtail, Giant [18]: 100; Plant response rating, Ryegrass, Italian [19]: 90; Plant response rating, Ryegrass, Italian [20]: 90"
COc1cccc2c1OC(C)CN2C(=O)c1cccc(-n2cncn2)c1 (stereo not shown) [Compound 41],–,–,–,–,–,–,–,–,–,–,–,–,–,–,–,–,–,–,–,–,"Plant response rating, Goosegrass [1]: 90; Plant response rating, Blackgrass [2]: 30; Plant response rating, Kochia [3]: 20; Plant response rating, Rice [4]: 0; Plant response rating, Barnyardgrass [5]: 0; Plant response rating, Goosegrass [6]: 0; Plant response rating, Ragweed [7]: 0; Plant response rating, Sedge, Umbrella [8]: 55; Plant response rating, Galium [9]: 70; Plant response rating, Kochia [10]: 0; Plant response rating, Pigweed, Palmer [11]: 20; Plant response rating, Ducksalad [12]: 50; Plant response rating, Blackgrass [13]: 50; Plant response rating, Horseweed [14]: 0; Plant response rating, Foxtail, Giant [15]: 60; Plant response rating, Ragweed [16]: 0; Plant response rating, Pigweed, Palmer [17]: 30; Plant response rating, Foxtail, Giant [18]: 90; Plant response rating, Ryegrass, Italian [19]: 60; Plant response rating, Ryegrass, Italian [20]: 70"
"Cc1cccc2c1O[C@@H](C(F)(F)F)CN2C(=O)c1cccc(-n2cncn2)c1 (single isomer, unassigned) [Compound 68]",100,80,80,0,0,90,60,65,100,90,50,55,80,0,90,70,100,100,90,100,–
